Data published in patent publication US6693123B2 (University of Pittsburgh, priority 1995, dated 2004).
Structures can show the parent of a compound that is named as a salt. Where two headings read alike, the source gives them in different places.

Target: T1, Rat brain protein farnesyltransferase (Rattus norvegicus, UniProt Q02293+Q04631)
T1 construct: The enzyme is purified according to Reiss, Y., et al., Cell, 62: 81-88 (1990), utilizing steps one through three; from tissue; host or cells: rat brain
Assay: In vitro inhibition of protein farnesyltransferase, Amersham scintillation proximity assay with biotin-K Ras B fragment
Type: biochemical
Conditions: for inhibition at 1 µM: read-out: % inhibition at 1 × 10^−6 M; for inhibition at 0.1 µM: compound at 1 × 10^−7 M (Table 3), read-out: % inhibition at 1 × 10^−7 M
From the text: The ability of the compounds of the invention to inhibit protein farnesyltransferase or protein geranylgeranyltransferase can be measured according to the method of Moores, et al., J. Biol. Chem. 266: 14603 (1991) or the method of Vogt, et al., J. Biol. Chem. 270:660-664 (1995). In addition, procedures for determination of the inhibition of farnesylation of the oncogene protein Ras are described by Goldstein, et al., J. Biol. Chem., 266:15575-15578 (1991) and by Singh in U.S. Pat. No. 5,245,061.
In addition, in vitro inhibition of protein farnesyltransferase may be measured by the following procedure. Rat brain protein farnesyltransferase activity is measured using an Amersham Life Science commercial scintillation proximity assay kit and substituting a biotin-K Ras B fragment (biotin-[…]Ue-Met-CO2H), 0.1 mM final concentration, for the biotin-lamin substrate provided by Amersham. The enzyme is purified according to Reiss, Y., et al., Cell, 62: 81-88 (1990), utilizing steps one through three. […]
The % inhibition of protein farnesyltransferase was determined for representative compounds of the invention.

[1] = Inhibition of farnesyltransferase, compound at 1 × 10^−6 M (Table 2)
[2] = Inhibition of farnesyltransferase
[3] = Inhibition of farnesyltransferase, compound at 1 × 10^−8 M (Table 4), read-out: % inhibition at 1 × 10^−8 M

| Compound | inhibition at 1 µM [1] | also measured |
| --- | --- | --- |
| CSCC[C@@H](C(=O)O)N(C)C(=O)c1ccc(CNc2cccnc2)cc1-c1ccccc1 [Example 159, [4-(3-Pyridylaminomethyl)-2-phenylbenzoyl]-N-methylmethionine] | 84% |  |
| CSCC[C@H](NC(=O)c1ccc(CCc2cccnc2)cc1-c1ccccc1C)/C(=N/O)NO [Example 815, N-[4-(2-Pyrid-3-yleth-1-yl)-2-(2-methylphenyl)benzoyl]methionine N,N-Dihydroxyamidine] |  | inhibition at 0.1 µM [2]: 71% |
| CS(=O)(=O)CC[C@H](NC(=O)c1ccc(CNc2cccnc2)cc1-c1ccccc1)C(=O)O [Example 239, N-[4-(3-Pyridylaminomethyl)-2-phenylbenzoyl]-2-amino-4-(methylsulfonyl)butanoic Acid] | 97% |  |
| CSCC[C@H](NC(=O)c1ccc(CN(CC2CCCCC2)c2cccnc2)cc1-c1ccccc1C)C(=O)O [Example 408] |  | inhibition at 0.01 µM [3]: > 95% |
| CSCC[C@H](NC(=O)Nc1ccc(COc2cccnc2)cc1-c1ccccc1)C(=O)O [Example 348, [4-(3-Pyridyloxymethyl)-2-(phenyl)phenylaminocarbonyl]methionine] |  | inhibition at 1 µM: 66% |
| CSCC[C@H](NC(=O)c1ccc(COc2cccnc2)cc1-c1ccc(F)cc1Cl)C(=O)O [Example 871, N-[4-(Pyrid-3-yloxymethyl)-2-(2-chloro-4-fluorophenyl)benzoyl]methionine] |  | inhibition at 0.01 µM [3]: 94% |
| CSCC[C@H](NC(=O)c1ccc(/C=C/c2cnccc2C(O)C23CC4CC(CC(C4)C2)C3)cc1-c1ccccc1C)C(=O)O (stereo partly drawn) [Example 803, Lithium Salt] |  | inhibition at 0.01 µM (read-out: % inhibition at 1 × 10^−8 M): 95% |
| CSCC[C@H](NC(=O)c1ccc(CS(=O)(=O)c2cccnc2)cc1-c1ccccc1)C(=O)O [Example 233, [4-(3-Pyridylsulfonylmethyl)-2-phenylbenzoyl]methionine] | 65% |  |
| CSCC[C@H](NC(=O)c1ccc(C#Cc2cccnc2)cc1-c1ccccc1)C(=O)O [Example 218, {4-[(Pyrid-3-yl)ethynyl]-2-phenylbenzoyl}methionine Hydrochloride] | 89% |  |
| COc1ccccc1-c1cc(COc2cccnc2)ccc1C(=O)N[C@@H](CCSC)C(=O)O [Example 207, [4-(3-Pyridyloxymethyl)-2-(2-methoxyphenyl)benzoyl]methionine] | 98% |  |
| CCCC(=O)OC(c1cccnc1)C(OC(=O)CCC)c1ccc(C(=O)N[C@@H](CCS(C)(=O)=O)C(=O)O)c(-c2ccccc2)c1 (stereo partly drawn) [Example 223] | 63% |  |
| CSCC[C@H](NC(=O)c1cc(CC2CCCCC2)c(COc2cccnc2)cc1-c1ccccc1C)C(=O)O [Example 921, N-[5-Cyclohexylmethyl-4-(pyrid-3-yloxymethyl)-2-(2-methylphenyl)benzoyl]methionine] |  | inhibition at 0.1 µM [2]: 82% |
| O=C(N[C@H]1CCOC1=O)c1ccc(NCc2cccnc2)cc1-c1ccccc1 [Example 190, [4-(3-Pyridylmethylamino)-2-phenylbenzoyl]homoserine Lactone] | 4% |  |
| {4-[2-(Pyrid-3-yl)ethenyl]-2-(2-methylphenyl)benzyl}methionine Butyl Ester [Example 292] |  | % inhibition at 1 × 10^−6 M [1]: 36% |
| CSCC[C@H](NC(=O)c1ccc(NCc2c[nH]cn2)cc1-c1ccccc1)C(=O)O [Example 167, [4-(1H-Imidazol-4-ylmethyl)amino-2-phenylbenzoyl]methionine Hydrochloride] | 98% |  |
| CSCC[C@H](NC(=O)c1ccc(COc2cccnc2)cc1-c1cccc(C)c1)C(=O)O [Example 205, [4-(3-Pyridyloxymethyl)-2-(3-methylphenyl)benzoyl]methionine] | 98% |  |
| CSCC[C@H](NC(=O)c1ccc(OCc2cccnc2)cc1-c1ccccc1)C(=O)O [Example 240, [4-(3-Pyridylmethyloxy)-2-phenylbenzoyl-]methionine] | 98% |  |
| CNC(=O)[C@H](CCSC)NC(=O)c1ccc(NCc2cccnc2)cc1-c1ccccc1 [Example 197, [4-(3-Pyridylmethylamino)-2-phenylbenzoyl]methioninemethylamide] | 1% |  |
| CSCC[C@H](NC(=O)c1ccc(CN(c2cccnc2)S(=O)(=O)c2ccccc2)cc1-c1ccccc1C)C(=O)O [Example 570, N-[4-N-Phenylsulfonyl-N-pyrid-3-ylaminomethyl-2-(2-methylphenyl)benzoyl]methionine] |  | inhibition at 0.1 µM [2]: 92% |
| CSCC[C@H](NC(=O)c1ccc(Sc2cccnc2)cc1-c1ccccc1)C(=O)O [Example 241] | 41% |  |
| CCc1nc(NC(=O)c2ccc(COc3cccnc3)cc2-c2ccccc2)sc1C(=O)O [Example 228] | 39% |  |
| CSCC[C@H](NC(=O)c1ccc(COc2cccnc2)cc1-c1ccccc1)C(=O)NS(=O)(=O)N1CCSCC1 [Example 603, Thiomorpholinesulfonyl N-2-[4-(Pyrid-3-yloxymethyl)-2-phenylbenzoyl]amino-4-methylthiobutanamide] |  | inhibition at 0.01 µM [3]: 94% |
| CSCC[C@H](NC(=O)c1ccc(/C=C/c2cnccc2C(O)c2ccccc2)cc1-c1ccccc1C)C(=O)O (stereo partly drawn) [Example 484, N-[4-(2-(4-α-Hydroxybenzyl)pyrid-3-ylethen-1-yl)-2-(2-methylphenyl)benzoyl]methionine Lithium Salt] |  | inhibition at 0.1 µM [2]: 97% |
| CSCC[C@H](NC(=O)c1ccc(CNc2ccccn2)cc1-c1ccccc1)C(=O)O [Example 160, [4-(2-Pyridylaminomethyl)-2-phenylbenzoyl]methionine] | 30% |  |
| CNCCc1cnc[nH]1 [Example 722] |  | inhibition at 1 µM: 96% |
| CSCC[C@H](NC(=O)c1ccc(CN(CCCn2ccnc2)Cc2cc(F)cc(F)c2)cc1-c1ccccc1C)C(=O)O [Example 1298, N-[4-N-(N-(3-(1-Imidazole)-propyl)-N-(3,5-difluorobenzyl)aminomethyl)-2-(2-methylphenyl)benzoyl]methionine Lithium Salt] |  | inhibition at 0.01 µM (read-out: % inhibition at 0.01 μM): 97% |
| CSCC[C@H](NC(=O)c1cc(Cc2ccccc2)c(CN(Cc2ccccc2)c2cccnc2)cc1-c1ccccc1C)C(=O)O [Example 920, N-[5-Benzyl-4-(N-pyrid-3-yl-N-benzylaminomethyl)-2-(2-metbylphenyl)benzoyl]methionine] |  | inhibition at 0.01 µM [3]: 96% |
| C[C@H](NC(=O)c1ccc(COc2cccnc2)cc1-c1ccccc1)C(=O)O [Example 187, [4-(3-Pyridyloxymethyl)-2-phenylbenzoyl]alanine] | 68% |  |
| CSCC[C@H](NC(=O)c1ccc(NC(=O)c2cccnc2)cc1-c1ccccc1)C(=O)O [Example 200, [4-(3-Pyridylcarbonylamino)-2-phenylbenzoyl]methionine Hydrochloride] |  | inhibition at 10 µM (Inhibition of farnesyltransferase, compound at 1 × 10^−5 M (Table 1)): 93% |
| CSCC[C@H](NC(=O)c1ccc(C=Cc2cccnc2)cc1-c1ccccc1C)C(=O)OCOC(C)=O [Example 295] |  | % inhibition at 1 × 10^−6 M [1]: 94% |

Second part, led by results:

| inhibition at 1 µM [1] | Compound | also measured |
| --- | --- | --- |
| 69% | CSCCCNC(=O)c1ccc(CN(Cc2ccccc2)c2cccnc2)cc1-c1ccccc1C [Example 926, 3-Methylthiopropyl N-4-(N-Pyrid-3-yl-N-benzylaminomethyl)-2-(2-methylphenyl)benzamide] |  |
| 21% | CCCC[C@H](NC(=O)c1ccc(COc2cccnc2)cc1-c1ccccc1)C(=O)O [Example 244, N-[4-(3-Pyridyloxymethyl)-2-phenylbenzoyl]norleucine] |  |
| 43% | CSCC[C@H](NC(=O)c1ccc(C(O)c2ccncc2)cc1-c1ccccc1)C(=O)O (stereo partly drawn) [Example 298, [4-(4-Pyridylhydroxymethyl)-2-phenylbenzoyl]methionine Sodium Salt] |  |
| 35% | CSCC[C@H](NC(=O)c1ccc(/C=C/c2cccnc2)cc1-c1ccccc1C)C(N)=O [Example 796, N-[4-(2-Pyrid-3-ylethen-1-yl)-2-(2-methylphenyl)benzoyl]methioninamide] |  |
| 98% | CSCC[C@H](NC(=O)c1ccc(CSCc2c[nH]cn2)cc1-c1ccccc1C)C(=O)O [Example 331, [4-(1H-Imidazol-4-ylmethylthiomethyl)-2-(2-methylphenyl)benzoyl]methionine] |  |
| 79% | CSCC[C@@H](CC(=O)O)NC(=O)c1ccc(COc2cccnc2)cc1-c1ccccc1 [Example 248] |  |
| 99% | CSCC[C@H](NC(=O)c1ccc(CSc2cccnc2)cc1-c1ccccc1C)C(=O)NS(=O)(=O)c1ccccc1 [Example 325] |  |
| 22% | COC(=O)[C@H](CCSC)NC(=O)c1ccc(NC(=O)c2cccnc2)cc1-c1ccccc1C [Example 300, [4-(3-Pyridylcarbonylamino)-2-(2-methylphenyl)benzoyl]methionine Methyl Ester] |  |
| 41% | Cc1ccccc1-c1cc(/C=C/c2cnc3ccccc3c2)ccc1C(=O)N[C@@H](CC[S+](C)[O-])C(=O)O (stereo partly drawn) [Example 488] |  |
